Test results from PMC11741111, “Diversification of Lipopeptide Analogues Drives Versatility in Biological Activities” (Journal of Agricultural and Food Chemistry, 2025).

Columns and labels:
B. velezensis UMAF6639 [1] = test: Lipopeptide analog bacterial toxicity (growth dynamics, OD600); format: cell-based, Bacillus velezensis; conditions: LB, 28 °C, read every 20 min, triplicate; for effect on B. velezensis UMAF6639 growth (OD600 over 24 h), iturin variants at the higher (mixture) concentration: each analog at 7.35 µM; for effect on B. velezensis UMAF6639 growth (OD600 over 24 h), iturin variants at the higher (mixture) concentration / effect on B. velezensis UMAF6639 growth (OD600 over 24 h), iturins at physiological concentration: Figure 6A-E; for effect on B. velezensis UMAF6639 growth (OD600 over 24 h), iturins at physiological concentration: mix 7.35 µM, C13 1.27, C14 2.39, C15 0.76, C16 1.96, C17 0.93 µM; for toxicity to B. velezensis UMAF6639 (OD600 over 24 h), surfactin variants at the mixture concentration: each analog at 65.83 µM; for toxicity to B. velezensis UMAF6639 (OD600 over 24 h), surfactin variants at the mixture concentration / effect on B. velezensis UMAF6639 growth (OD600 over 24 h), surfactins at physiological concentration: Figure 6K-O; for effect on B. velezensis UMAF6639 growth (OD600 over 24 h), surfactins at physiological concentration: mix 65.83 µM, C12 3.67, C13 16.93, C14 20.49, C15 21.85, C16 4.11 µM
Procedure: To analyze the toxicity of the lipopeptide variants toward B. velezensis UMAF6639, the wells of 96-well plates with 200 μL of LB medium were inoculated with 5 μL of a bacterial suspension (OD600 = 1), and every analog was added at the desired concentration.
Methanol concentrations used for lipopeptide treatment in each condition ranged from 0.005 to 4.3%, and the maximum was used as a control to confirm that was not harmful for Bacillus growth. OD600 values were measured in a plate reader (FLUOstar Omega reader, BMG LabTech) in kinetic mode with temperature control (28 °C), with measurements taken every 20 min.

[2] = test system: Melon seeds (Rochet Panal - Fitó); test: Promotion of radicle growth evaluation in melon seeds; format: in vivo; conditions: seeds bathed 1 h, 5 d at 25 °C in the dark; each analog at mixture concentration (7.35 µM); Figure 5A bottom
Procedure: Melon seeds (Rochet Panal - Fitó) were surface sterilized with 0.1% sodium hypochlorite and washed twice with distilled water. Seed treatment with the purified variants was performed by bathing the seeds for 1 h at room temperature. The analog concentrations were set to the physiological concentrations obtained from previous calibrations. In addition, a second concentration was assayed as if each analog was the only one produced to reach the same concentration as that of the mixture of each lipopeptide family (Table S3). Since each lipopeptide fraction was reconstituted in methanol, water-treated seeds with the highest concentration of methanol used for lipopeptide treatment were used as control. The methanol concentration ranged from 0.004 to 0.025% for iturins, 0.009 to 0.067% for fengycins and 0.018 to 0.050% for surfactins. The seeds were placed in Petri dishes with moist filter paper and maintained in growth chambers at 25 °C for 5 d under dark conditions. The radicle growth-promoting effects were analyzed on the basis of the radicle areas measured 5 days after seed treatment using Fiji software.[28]

B. cinerea = test: Antifungal activity assay (fungal growth, OD600); format: cell-based, Botrytis cinerea; conditions: 24 h, 25 °C
Procedure: B. cinerea spores were harvested from sporulated plates with distilled water and filtered through a […] pore membrane to avoid mycelial contamination. 96-well plates containing 100 μL of PDB with 100 spores per well were used, and the corresponding analog concentrations were analyzed for antifungal activity. H2O2 (10 mM) was used as a positive control to induce fungal death. For this experiment, methanol concentrations used for lipopeptide treatment ranged from 2 to 6% for iturins, 0.08 to 0.5% for fengycins and 0.2 to 4% for surfactins. The highest methanol concentration used for each condition was added to the control. The plates were incubated for 24 h with agitation (150 rpm) at 25 °C. After incubation, the OD600 values of the inoculated plates were measured in a plate reader (FLUOstar Omega reader, BMG LabTech) to evaluate fungal growth within the treatments.

B. velezensis UMAF6639 [3] = test: Bacterial counts (CFU) of treated cultures; format: cell-based, Bacillus velezensis; conditions: analogue at its physiological concentration, sampled 14 h after treatment; compared with methanol control; Figure 7A
[4] = test system: Fusarium oxysporum f. sp. radicis-lycopersici; conditions: antagonizing Fusarium oxysporum f. sp. radicis-lycopersici; cited from earlier work
Text: In another recent study, plipastatins, fengycin analogues produced by B. subtilis, were reported to interact with oil bodies (OBs) of the melon seed endosperm, accelerating lipid mobilization and resulting in plant growth promotion (PGP) and immunization.[12] […] Because fengycin B variants have the same fatty acid length, the amino acid at position 6 of the peptide moiety, which differs between fengycin A and B,[46] is important for t ...

Ser-Asn-Pro-Gln-Asn-Tyr-Asn (head to tail) [C16-iturin A, iturin A analogue with C16 fatty acid chain, iturin Fraction D, purified from B. velezensis UMAF6639]
effect on B. velezensis UMAF6639 growth (OD600 over 24 h), iturin variants at the higher (mixture) concentration (B. velezensis UMAF6639 [1]): bacterial growth was slightly delayed | effect on B. velezensis UMAF6639 growth (OD600 over 24 h), iturins at physiological concentration (B. velezensis UMAF6639 [1]): no difference from the control | melon seed radicle growth promotion (radicle area), iturin variants at the same concentration [2]: significantly promoted radicle growth

Glu-Leu/Ile-Leu-Val-Asp-Leu-Leu/Ile (lariat or depsi) [C16-surfactin, surfactin analogue with C16 fatty acid, surfactin Fraction H]
antifungal activity (fungal growth, OD600), surfactin variants at increased concentration (B. cinerea; each analog at mixture concentration (65.83 µM), B. cinerea, PDB, Figure 4C right): comparable to that of the positive control | toxicity to B. velezensis UMAF6639 (OD600 over 24 h), surfactin variants at the mixture concentration (B. velezensis UMAF6639 [1]): most toxic | effect on B. velezensis UMAF6639 growth (OD600 over 24 h), surfactins at physiological concentration (B. velezensis UMAF6639 [1]): delayed bacterial growth

Glu-Orn-Tyr-Thr-Glu-Ala/Val-Pro-Gln-Thr-Ile (lariat or depsi) [C14-fengycin B, fengycin B variant with C14 fatty acid, fengycin Fraction B]
antifungal activity (fungal growth, OD600), fengycin variants at the highest concentration tested (B. cinerea; each fraction at mixture concentration (25.60 µM), B. cinerea, PDB, Figure 4B right): weak antifungal activity | effect on B. velezensis UMAF6639 growth (OD600 over 24 h), fengycin fractions at the highest (mixture) concentration (B. velezensis UMAF6639 [1]; each fraction at 25.60 µM, Figure 6F-J): more pronounced | effect on B. velezensis UMAF6639 growth (OD600 over 24 h), fengycins at physiological (lower) concentration (B. velezensis UMAF6639 [1]; mix 25.60 µM, fractions B 3.96, C 5.44, D 2.50, E 11.21, F 2.22 µM, Figure 6F-J): slightly delayed growth

Ser-Asn-Pro-Gln-Asn-Tyr-Asn (head to tail) [C14-iturin A, iturin A analogue with C14 fatty acid chain, iturin Fraction B, purified from B. velezensis UMAF6639]
effect on B. velezensis UMAF6639 growth (OD600 over 24 h), iturin variants at the higher (mixture) concentration (B. velezensis UMAF6639 [1]): bacterial growth was slightly delayed | effect on B. velezensis UMAF6639 growth (OD600 over 24 h), iturins at physiological concentration (B. velezensis UMAF6639 [1]): no difference from the control | melon seed radicle growth promotion (radicle area), iturin variants at the same concentration [2]: compromised root development

Ser-Asn-Pro-Gln-Asn-Tyr-Asn (head to tail) [C17-iturin A, iturin A analogue with C17 fatty acid chain, iturin Fraction E, purified from B. velezensis UMAF6639]
effect on B. velezensis UMAF6639 growth (OD600 over 24 h), iturin variants at the higher (mixture) concentration (B. velezensis UMAF6639 [1]): completely arrested B. velezensis growth | melon seed radicle growth promotion (radicle area), iturin variants at the same concentration [2]: slightly reduced the root area

Ser-Asn-Pro-Gln-Asn-Tyr-Asn (head to tail) [C13-iturin A, iturin A analogue with C13 fatty acid chain, iturin Fraction A, purified from B. velezensis UMAF6639]
effect on B. velezensis UMAF6639 growth (OD600 over 24 h), iturin variants at the higher (mixture) concentration (B. velezensis UMAF6639 [1]): harmless to Bacillus cells | effect on B. velezensis UMAF6639 growth (OD600 over 24 h), iturins at physiological concentration (B. velezensis UMAF6639 [1]): harmless to Bacillus cells | melon seed radicle growth promotion (radicle area), iturin variants at the same concentration [2]: compromised root development

Ser-Asn-Pro-Gln-Asn-Tyr-Asn (head to tail) [C15-iturin A, iturin A analogue with C15 fatty acid chain, iturin Fraction C, purified from B. velezensis UMAF6639]
antifungal activity (fungal growth, OD600), iturins at physiological concentration (B. cinerea; B. cinerea 100 spores/well in PDB, 150 rpm, mix 7.35 µM, C13 1.27, C14 2.39, C15 0.76, C16 1.96, C17 0.93 µM (Table S3), Figure 4A left): failed to exhibit antifungal activity | antifungal activity (fungal growth, OD600), iturin variants at the concentration of the entire mixture (B. cinerea; each variant at 7.35 μM, B. cinerea, PDB, Figure 4A right): sole active analog | effect on B. velezensis UMAF6639 growth (OD600 over 24 h), iturin variants at the higher (mixture) concentration (B. velezensis UMAF6639 [1]): decrease in the optical density, the values remained above those of the untreated control | effect on B. velezensis UMAF6639 growth (OD600 over 24 h), iturins at physiological concentration (B. velezensis UMAF6639 [1]): considerable increase in the OD600 value | bacterial counts (CFU) of B. velezensis UMAF6639 cultures (B. velezensis UMAF6639 [3]): increased bacterial counts | melon seed radicle growth promotion (radicle area), iturin variants at the same concentration [2]: significantly promoted radicle growth

Glu-Orn-Tyr-Thr-Glu-Ala/Val-Pro-Gln-Thr-Ile (lariat or depsi) [fengycin A, fengycin variant with Ala at position 6; literature MIC comparison]
minimal inhibitory concentration [4]: notably greater than that of fengycin B

Glu-Leu/Ile-Leu-Val-Asp-Leu-Leu/Ile (lariat or depsi) [C13-surfactin, surfactin analogue with C13 fatty acid, surfactin Fraction B]
effect on B. velezensis UMAF6639 growth (OD600 over 24 h), surfactins at physiological concentration (B. velezensis UMAF6639 [1]): considerable increase in the OD values | bacterial counts (CFU) of B. velezensis UMAF6639 cultures (B. velezensis UMAF6639 [3]): increased bacterial counts

Glu-Leu/Ile-Leu-Val-Asp-Leu-Leu/Ile (lariat or depsi) [C12-surfactin, surfactin analogue with C12 fatty acid, surfactin Fraction A]
antifungal activity (fungal growth, OD600), surfactins at physiological concentration (B. cinerea; B. cinerea, PDB, mix 65.83 µM, C12 3.67, C13 16.93, C14 20.49, C15 21.85, C16 4.11 µM (Table S3), Figure 4C left): no significant antifungal activity at physiological concentrations, except for the C12 analog | toxicity to B. velezensis UMAF6639 (OD600 over 24 h), surfactin variants at the mixture concentration (B. velezensis UMAF6639 [1]): most toxic

Glu-Leu/Ile-Leu-Val-Asp-Leu-Leu/Ile (lariat or depsi) [C15-surfactin, surfactin analogue with C15 fatty acid, surfactin Fractions E, F and G]
effect on B. velezensis UMAF6639 growth (OD600 over 24 h), surfactins at physiological concentration (B. velezensis UMAF6639 [1]): delayed bacterial growth
